Laboratory results: the supplement of paper PMC11208160

assay: recombinant barcode read abundance after kanamycin selection (control-corrected) (log10(CPM+1)); higher = more efficient recombination; sequences stand for … in AGTGCAGAGAAAATCGGCCAGTTTTCTCTGCCTGCAGTCCGCATGCCGT…AGATTTATGCAGCGGACTGCCTTTCTCCCAAAGTGATAAACCGGACAGTATCATGGACCGGTTTTCCCGGTAATCCGTATTTGCAAGGTTGGTTTCACT; site = the 11-nt target
Outline: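 In E. coli, a pooled library matched targets to IS621 bridge RNA target-binding loops and was introduced alongside a donor plasmid. Cells went onto chloramphenicol/ampicillin/kanamycin with 0.1 mM IPTG or onto chloramphenicol/ampicillin LB agar as control, in duplicate. Recombination efficiency, from recombinant-junction barcodes as counts per million, is averaged and control-corrected. It is reported as log10(CPM+1).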
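Note: IS621 recombinase and bridge RNA in Escherichia coli cells.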

In order of falling “recombinant barcode read abundance (log10)” value:
1. GAAAGCTCTTGGGTTCTAACCTGTTGCGT (site GAAAGCTCTAC)  2.99
2. GAGGACTCTTGGGTTCTAACCTGTTGCCC (site GAGGACTCTGG)  2.39
3. CGGCGTGCTTGGGTTCTAACCTGTTGCCT (site CGGCGTGCTAG)  1.99
4. TGAGGGACTTGGGTTCTAACCTGTTGCCT (site TGAGGGACTAG)  1.9
5. TACAAGTCTTGGGTTCTAACCTGTTGCGG (site TACAAGTCTCC)  1.88
6. ACATTGTCTTGGGTTCTAACCTGTTGCCT (site ACATTGTCTAG)  1.73
7. CAGAGGTCTTGGGTTCTAACCTGTTGCCT (site CAGAGGTCTAG)  1.39
8. GACGGATCTTGGGTTCTAACCTGTTGCGT (site GACGGATCTAT)  1.35
9. GTAAGCTCTTGGGTTCTAACCTGTTGCCT (site ATAAGCTCTAG)  1.34
10. CAACCGTCTTGGGTTCTAACCTGTTGCCT (site CAACCGTCTAG)  1.33
11. TACTACCCTTGGGTTCTAACCTGTTGCGT (site TGCCACCCTAC)  1.28
12. GGTTACACTTGGGTTCTAACCTGTTGCCT (site GGTTACACTAG)  1.26
13. CTGGAAACTTGGGTTCTAACCTGTTGCCT (site CTGGAAACTAG)  1.23
14. GCGAAGTCTTGGGTTCTAACCTGTTGCTT (site GCGAAGTCTAA)  1.15
15. ATTACCTCTTGGGTTCTAACCTGTTGCCT (site ATTACCTCTAG)  1.1
16. GAGCAACCTTGGGTTCTAACCTGTTGCCG (site GAGCAACCTCG)  1.07
17. TAGAATACTTGGGTTCTAACCTGTTGCGG (site TAGAATACTCC)  1.06
18. CTATACTCTTGGGTTCTAACCTGTTGCCA (site CTATACTCTTG)  1.03
19. GTATATACTTGGGTTCTAACCTGTTGCCT (site GTATATACTAG)  0.902
20. ACTGGGGCTTGGGTTCTAACCTGTTGCCA (site ACTGGGGCTTG)  0.782
21. GCGTGAGCTTGGGTTCTAACCTGTTGCCT (site GCGTGAGCTAG)  0.676
22. GAGCAGACTTGGGTTCTAACCTGTTGCCT (site GAGCTGACTAG)  0.631
23. GTAAGAACTTGGGTTCTAACCTGTTGCTT (site GTAAGAACTAA)  0.629
24. GAGGGTTCTTGGGTTCTAACCTGTTGCAT (site GAGGGTGCTAG)  0.528
25. TTGCGTGCTTGGGTTCTAACCTGTTGCTT (site TTGCGTGCTAA)  0.518
26. GACCCTACTTGGGTTCTAACCTGTTGCCT (site GACCCTACTAG)  0.516
27. AAATCCTCTTGGGTTCTAACCTGTTGCCT (site CAATCCTCTAG)  0.475
28. AACTTCGCTTGGGTTCTAACCTGTTGCCT (site AACTTCGCTAG)  0.423
29. CTTGCATCTTGGGTTCTAACCTGTTGCCT (site CTTGCATCTAG)  0.383
30. CTAGGCCCTTGGGTTCTAACCTGTTGCGT (site CTAGGCCCTAA)  0.361
31. CTGGACACTTGGGTTCTAACCTGTTGCCT (site CTTGACACTAG)  0.329
32. GAGCGAGCTTGGGTTCTAACCTGTTGCCG (site GAGCGAGCTCT)  0.308
33. AATATCTCTTGGGTTCTAACCTGTTGCCA (site AATATCTCTTG)  0.278
34. AATTGTCCTTGGGTTCTAACCTGTTGCTT (site AATTGTCCTAA)  0.246
35. ACATTTACTTGGGTTCTAACCTGTTGCCT (site TCATATACTAG)  0.242
36. TCTAAGTCTTGGGTTCTAACCTGTTGCCC (site TCTAAGTCTGG)  0.194
37. CATGCTCCTTGGGTTCTAACCTGTTGCAT (site CATGCTCCTAG)  0.168
38. ATCGGAGCTTGGGTTCTAACCTGTTGCCG (site ATCGGAGCTCA)  0.165
39. CGTCTCCCTTGGGTTCTAACCTGTTGCTT (site CGTCTCCCTAA)  0.162
40. CGTTCAACTTGGGTTCTAACCTGTTGCCT (site CGTTCGACTAG)  0.153
41. TGAGTCCCTTGGGTTCTAACCTGTTGCTT (site TGAGTTCCTAA)  0.125
42. TAATGACCTTGGGTTCTAACCTGTTGCTT (site TAATGACCTAT)  0.123
43. ATCTGGGCTTGGGTTCTAACCTGTTGCCT (site AGCTGGGCTAG)  0.123
44. AATAGCTCTTGGGTTCTAACCTGTTGCCT (site TATAGCTCTAG)  0.116
45. CGAACTACTTGGGTTCTAACCTGTTGCGT (site CGAACTACTAG)  0.109
46. AGTCTGGCTTGGGTTCTAACCTGTTGCCT (site TGTCTGGCTAG)  0.108
47. TACAGTTCTTGGGTTCTAACCTGTTGCTT (site TACCATTCTAA)  0.107
48. TAATCGCCTTGGGTTCTAACCTGTTGCCT (site TAATCGGCTAG)  0.102
49. TTAAAACCTTGGGTTCTAACCTGTTGCCT (site CTAAAACCTAG)  0.0966
50. AACTTAACTTGGGTTCTAACCTGTTGCCT (site AACTGAACTAG)  0.09
51. TCGTGCGCTTGGGTTCTAACCTGTTGCCT (site TCGTGCGCTAG)  0.0883
52. CACGAGGCTTGGGTTCTAACCTGTTGCCT (site CACGAGCCTAG)  0.0831
53. GCGTTGCCTTGGGTTCTAACCTGTTGCCT (site GAGTTGCCTAG)  0.073
54. TAACGCTCTTGGGTTCTAACCTGTTGCCT (site AAACGCTCTAG)  0.0696
55. GTCGGAGCTTGGGTTCTAACCTGTTGCCA (site GTCCGAACTTG)  0.0692
56. TCCTTCACTTGGGTTCTAACCTGTTGCCT (site TCGTTCGCTAG)  0.0665
57. CATTATCCTTGGGTTCTAACCTGTTGCCT (site CAATATCCTAG)  0.0661
58. GAGACAGCTTGGGTTCTAACCTGTTGCCT (site GACACAGCTAG)  0.0512
59. AACTGTCCTTGGGTTCTAACCTGTTGCAT (site AACTCTCCTAT)  0.0428
60. AGTATGACTTGGGTTCTAACCTGTTGCCT (site GGTATGACTAG)  0.0345
61. ATTAGGACTTGGGTTCTAACCTGTTGCGA (site AATAGGACTGC)  0.03
62. CTGCGCTCTTGGGTTCTAACCTGTTGCAT (site TGTGAGCCTTC)  0.0268
63. GGTCATCCTTGGGTTCTAACCTGTTGCCT (site GGTCATGCTAG)  0.0238
64. TTATACACTTGGGTTCTAACCTGTTGCTC (site GATAGGGCTAG)  0.0179
65. GGGGCGACTTGGGTTCTAACCTGTTGCCT (site GGGGCGTCTAG)  0.0176
66. CAGTTTGCTTGGGTTCTAACCTGTTGCCT (site CAGTTGGCTAG)  0
